# Measured values taken from patent US20180327367A1, “MACROCYCLIC BROAD SPECTRUM ANTIBIOTICS” (priority 2015, published 2018).
# Where two headings read alike, the source gives them in different places.
# How the values were obtained:
# [1] = system: Methicillin Resistant Staphylococcus aureus strain USA 300, NRS384; assay: Minimum inhibitory concentration, broth micro-dilution (CLSI), S. aureus; format: cell-based; details: Staphylococcus aureus, MRSA / NRS 384 / USA300, 22 h, read-out: MIC (μg/mL) S. aureus
# Method in brief: (§1)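 CLSI broth microdilution in cation-adjusted Mueller Hinton Broth with 0.002% Tween-80; inoculum final OD600 0.0005, 22 hours at 35° C. Ten 2-fold dilutions starting at 4 μg/mL (protocol 2) or 0.5 μg/mL (protocol 3).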
# [2] = system: Escherichia coli MC4100 harboring the IMP4213 (E. coli IMP); assay: microbe, parasite or virus in culture; format: cell-based; details: Escherichia coli, 22 h
# Method in brief: as §1
# [3] = system: Escherichia coli ATCC 25922; assay: Minimum inhibitory concentration, broth micro-dilution (CLSI), E. coli; format: cell-based; details: Escherichia coli, ATCC25922, 22 h, read-out: MIC (μg/mL) E. coli
# [4] = biological target: T1, SpsB (Staphylococcus aureus signal peptidase) (Staphylococcus aureus, UniProt P0A070); assay: cell-based; format: biochemical; details: SpsB IC50, whole-cell S. aureus (USA300 background, overexpressing SpsB) as SpsB source; fluorogenic peptide substrate, kinetic read 30 min
# T1 construct: This assay uses a suspension of Staphylococcus aureus cells as a source of SpsB instead of recombinant SpsB protein; endogenous in cells; host or cells: S. aureus, USA300 background, overexpressing SpsB (whole-cell suspension from frozen pellets)
# T1 sequence (P0A070 whole entry): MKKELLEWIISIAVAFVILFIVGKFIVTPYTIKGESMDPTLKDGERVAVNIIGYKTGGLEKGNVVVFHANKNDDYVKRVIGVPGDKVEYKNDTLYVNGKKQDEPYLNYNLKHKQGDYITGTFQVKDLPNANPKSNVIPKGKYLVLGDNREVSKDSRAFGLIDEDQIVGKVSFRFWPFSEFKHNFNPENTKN
# Method in brief: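 Whole S. aureus cells (USA300, overexpressing SpsB) in PBS with MgCl2, CaCl2 and 0.1% Tween-80 served as enzyme source, mixed with 20 μM stock of (Dabcyl)βAla-KPAKAAE(Edans) substrate before use. Fluorescence (ex 340/em 490 nm) read kinetically over 30 min. IC50 from reaction rate versus 11-point inhibitor concentration.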
# [5] = MRSA USA 300 NRS384, 35° C., 22 hours
# [6] = read-out: MIC (μg/mL) E. coli IMP, E. coli MC4100 IMP4213, increased outer-membrane permeability, 35° C., 22 hours
# [7] = E. coli ATCC 25922, 35° C., 22 hours
SMILES,"MIC [1, 5] [µg/mL]","MIC [2, 6] [µg/mL]","MIC [3, 7] [µg/mL]",IC50 [4] [nM],MIC [1] [µg/mL],MIC ([2]; read-out: MIC (μg/mL) E. coli IMP) [µg/mL],MIC [3] [µg/mL]
Cc1cc(-c2ccc(CC(C)C)cc2)cnc1C(=O)N[C@@H](CCN)C(=O)N(C)[C@@H]1C(=O)N[C@@H](C)C(=O)N[C@H](C(=O)NCC#N)Cc2ccc(OCCN)c(c2)-c2cc1ccc2OCCN [Compound 168],0.063,0.031,0.75,0.8,,,
Cc1nc(-c2ccc([Si](C)(C)C)cc2)ncc1C(=O)N[C@@H](CCN)C(=O)N(C)[C@@H]1C(=O)N[C@@H](C)C(=O)N[C@H](C(=O)NCC#N)Cc2ccc(OCCN)c(c2)-c2cc1ccc2OCCN [Compound 170],,,,0.72,0.073,0.0085,0.13
Cc1nc(-c2ccc(C(F)(F)F)cc2)ncc1C(=O)N[C@@H](CCN)C(=O)N(C)[C@@H]1C(=O)N[C@@H](C)C(=O)N[C@H](C(=O)NCC#N)Cc2ccc(OCCN)c(c2)-c2cc1ccc2OCCN [Compound 171],0.094,0.0078,0.5,0.72,,,
CC(C)Cc1ccc(-c2ccc(C(=O)N[C@@H](CCN)C(=O)N(C)[C@@H]3C(=O)N[C@@H](C)C(=O)N[C@H](C(=O)NCC#N)Cc4ccc(OCCN)c(c4)-c4cc3ccc4OCCN)c(C(F)F)c2)cc1 [Compound 172],0.094,0.016,0.19,1,,,
Cc1cc(-c2ncc(CC(C)C)cn2)ccc1C(=O)N[C@@H](CCN)C(=O)N(C)[C@@H]1C(=O)N[C@@H](C)C(=O)N[C@H](C(=O)NCC#N)Cc2ccc(OCCN)c(c2)-c2cc1ccc2OCCN [Compound 174],0.17,0.026,0.83,0.91,,,
CCCCc1cnc(-c2ccc(C(=O)N[C@@H](CCN)C(=O)N(C)[C@@H]3C(=O)N[C@@H](C)C(=O)N[C@H](C(=O)NCC#N)Cc4ccc(OCCN)c(c4)-c4cc3ccc4OCCN)c(C)c2)nc1 [Compound 175],0.13,0.0078,0.5,0.76,,,
CCc1cnc(-c2ccc(C(=O)N[C@@H](CCN)C(=O)N(C)[C@@H]3C(=O)N[C@@H](C)C(=O)N[C@H](C(=O)NCC#N)Cc4ccc(OCCN)c(c4)-c4cc3ccc4OCCN)c(C)c2)nc1 [Compound 176],1,0.13,2,2.6,,,
CC(C)CCc1ccc(-c2ccc(C(=O)N[C@@H](CCN)C(=O)N(C)[C@@H]3C(=O)N[C@@H](C)C(=O)N[C@H](C(=O)NCC#N)Cc4ccc(OCCN)c(c4)-c4cc3ccc4OCCN)cc2)cc1 [Compound 177],0.094,0.016,0.19,1.1,,,
Cc1cc(-c2cnc(CC(C)C)cn2)ccc1C(=O)N[C@@H](CCN)C(=O)N(C)[C@@H]1C(=O)N[C@@H](C)C(=O)N[C@H](C(=O)NCC#N)Cc2ccc(OCCN)c(c2)-c2cc1ccc2OCCN [Compound 178],0.25,0.039,1.5,0.9,,,
Cc1cc(-c2cnc(CC(C)C)nc2)ccc1C(=O)N[C@@H](CCN)C(=O)N(C)[C@@H]1C(=O)N[C@@H](C)C(=O)N[C@H](C(=O)NCC#N)Cc2ccc(OCCN)c(c2)-c2cc1ccc2OCCN [Compound 179],0.047,0.0078,0.19,1.8,,,
CC(C)Cc1cnc(-c2ccc(C(=O)N[C@@H](CCN)C(=O)N(C)[C@@H]3C(=O)N[C@@H](C)C(=O)N[C@H](C(=O)NCC#N)Cc4ccc(OCCN)c(c4)-c4cc3ccc4OCCN)c3ccccc23)nc1 [Compound 182],0.5,0.13,12,3.2,,,
CCC(C)(C)c1ccc(-c2ncc(C(=O)N[C@@H](CCN)C(=O)N(C)[C@@H]3C(=O)N[C@@H](C)C(=O)N[C@H](C(=O)NCC#N)Cc4ccc(OCCN)c(c4)-c4cc3ccc4OCCN)c(C)n2)cc1 [Compound 183],0.063,0.0059,0.13,0.62,,,
CCCCCCCCc1ccc(C(=O)N[C@@H](CCN)C(=O)N(C)[C@@H]2C(=O)N[C@@H](C)C(=O)N[C@H](C(=O)NCC#N)Cc3ccc(OCCN)c(c3)-c3cc2ccc3OCCN)c(F)c1 [Compound 184],0.094,0.012,0.25,0.89,,,
CCCCCCCCc1ccc(C(=O)N[C@@H](CCN)C(=O)N(C)[C@@H]2C(=O)N[C@@H](C)C(=O)N[C@H](C(=O)NCC#N)Cc3ccc(OCCN)c(c3)-c3cc2ccc3OCCN)c(SC)c1 [Compound 185],0.19,0.094,0.75,0.91,,,
CCCCCCCCc1cnc(C(=O)N[C@@H](CCN)C(=O)N(C)[C@@H]2C(=O)N[C@@H](C)C(=O)N[C@H](C(=O)NCC#N)Cc3ccc(OCCN)c(c3)-c3cc2ccc3OCCN)c(C)c1 [Compound 187],0.063,0.047,2,0.74,,,
CCCCCCCc1cc(C)c(C(=O)N[C@@H](CCN)C(=O)N(C)[C@@H]2C(=O)N[C@@H](C)C(=O)N[C@H](C(=O)NCC#N)Cc3ccc(OCCN)c(c3)-c3cc2ccc3OCCN)c(F)c1 [Compound 188],0.047,0.018,0.22,0.67,,,
CCCCCCCc1cc(F)c(C(=O)N[C@@H](CCN)C(=O)N(C)[C@@H]2C(=O)N[C@@H](C)C(=O)N[C@H](C(=O)NCC#N)Cc3ccc(OCCN)c(c3)-c3cc2ccc3OCCN)c(F)c1 [Compound 190],0.063,0.02,0.31,0.7,,,
CCCCCCCc1ccc(C(=O)N[C@@H](CCN)C(=O)N(C)[C@@H]2C(=O)N[C@@H](C)C(=O)N[C@H](C(=O)NCC#N)Cc3ccc(OCCN)c(c3)-c3cc2ccc3OCCN)c(C(F)(F)F)c1 [Compound 191],0.031,0.016,0.75,0.62,,,
CCCCCCCCc1ccc(C(=O)N[C@@H](CCN)C(=O)N(C)[C@@H]2C(=O)N[C@@H](C)C(=O)N[C@H](C(=O)NCC#N)Cc3ccc(OCCN)c(c3)-c3cc2ccc3OCCN)c(C(F)(F)F)c1 [Compound 192],0.063,0.012,0.25,0.89,,,
CCCCCCCCc1ccc(C(=O)N[C@@H](CCN)C(=O)N(C)[C@@H]2C(=O)N[C@@H](C)C(=O)N[C@H](C(=O)NCC#N)Cc3ccc(OCCN)c(c3)-c3cc2ccc3OCCN)c(O)c1 [Compound 193],0.063,0.047,0.5,0.93,,,
CCCCCCCc1ccc(C(=O)N[C@@H](CCCN)C(=O)N(C)[C@@H]2C(=O)N[C@@H](C)C(=O)N[C@H](C(=O)NCC#N)Cc3ccc(OCCN)c(c3)-c3cc2ccc3OCCN)c(C)c1 [Compound 194],0.016,0.0078,0.25,0.83,,,
CCCCCCc1ccc(C(=O)N[C@@H](CCN)C(=O)N(C)[C@@H]2C(=O)N[C@@H](C)C(=O)N[C@H](C(=O)NCC#N)Cc3ccc(OCCN)c(c3)-c3cc2ccc3OCCN)cc1 [Compound 195],0.063,0.0078,0.5,1.4,,,
CCCCCc1ccc(C(=O)N[C@@H](CCN)C(=O)N(C)[C@@H]2C(=O)N[C@@H](C)C(=O)N[C@H](C(=O)NCC#N)Cc3ccc(OCCN)c(c3)-c3cc2ccc3OCCN)c(C)c1 [Compound 196],0.094,0.013,0.67,1.1,,,
CCCCCCc1ccc(C(=O)N[C@@H](CCN)C(=O)N(C)[C@@H]2C(=O)N[C@@H](C)C(=O)N[C@H](C(=O)NCC#N)Cc3ccc(OCCN)c(c3)-c3cc2ccc3OCCN)c(C)c1 [Compound 197],0.078,0.011,0.31,< 0.5,,,
CCCCCCCc1ccc(C(=O)N[C@@H](CCN)C(=O)N(C)[C@@H]2C(=O)N[C@@H](C)C(=O)N[C@H](C(=O)NCC#N)Cc3ccc(OCCN)c(c3)-c3cc2ccc3OCCN)c(C)c1 [Compound 198],0.063,0.018,0.24,0.72,,,
CCCCCCc1ccc(C(=O)N[C@@H](CCCCN)C(=O)N(C)[C@@H]2C(=O)N[C@@H](C)C(=O)N[C@H](C(=O)NCC#N)Cc3ccc(OCCN)c(c3)-c3cc2ccc3OCCN)c(C)c1 [Compound 199],0.031,0.031,3,0.73,,,
CCCCCCc1ccc(C(=O)N[C@@H](CCN)C(=O)N(C)[C@@H]2C(=O)N[C@@H](C)C(=O)N[C@H](C(=O)NCC#N)Cc3ccc(OCCN)c(c3)-c3cc2ccc3OCCN)cn1 [Compound 201],0.19,0.031,2,1.4,,,
CCCCCCCc1ccc(C(=O)N[C@@H](CN)C(=O)N(C)[C@@H]2C(=O)N[C@@H](C)C(=O)N[C@H](C(=O)NCC#N)Cc3ccc(OCCN)c(c3)-c3cc2ccc3OCCN)c(C)c1 [Compound 202],0.031,0.016,0.25,0.66,,,
